Where two headings read alike, the source gives them in different places.
Key:
[1] = system: MCF-7 human breast cancer cells; experiment: Inhibition of growth of MCF-7 breast cancer cells (MTT), with MacSynergy II synergy analysis; conditions: for inhibition at 0.1 µM / inhibition at 0.2 µM / inhibition at 0.4 µM / inhibition at 0.005 µM / inhibition at 0.01 µM / inhibition at 0.05 µM: Homo sapiens, MCF7, read-out: Percent Inhibition, Table E;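 for all read-outs here: cells treated five or six days with single agents or combinations, growth read by MTT, synergy surface equals observed % inhibition minus Bliss additive prediction, values under 0% signal antagonism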
Description: MCF-7 human breast cancer cells were maintained at 37° C. in a humidified atmosphere of 5% CO2 and 95% air in IMEM medium supplemented with 10% fetal bovine serum. […] One day before the experiment, cells were plated in 96-well plates at a cell density of 2,500 cells/well in IMEM medium supplemented with 10% fetal bovine serum. The next day, cells were treated with various concentrations of antiestrogen and rapamycin 42-ester with 3-hydroxy-2-(hydroxymethyl)-2-methylpropionic acid (referred to as CCI-779 in the tables below). Five or six-days later, cell growth was monitored. MTT solution (20 ul) (0.5 mg/ml) was added to each well and cells were incubated for an additional 4 h. The solution was then removed and 150 ul of DMSO added. The intensity of dark blue color corresponding to number of cells was read at 540 nm with an automated plate reader.
Briefly, theoretical additive interactions were calculated from the dose-response curves of each individual drug based on Bliss independence model. The calculated additive surface was then subtracted from the experimental surface to obtain a synergy surface representing % inhibition above the calculated additive value-synergy index. […] Likewise, any peak below the 0% plane is indicative of antagonism.

[2] = system: BG-1 human ovarian cancer cells; experiment: Inhibition of growth of BG-1 ovarian cancer cells (MTT), with MacSynergy II synergy analysis; type: cell-based; conditions: for inhibition at 0.005 µM / inhibition at 0.01 µM / inhibition at 0.05 µM / inhibition at 0.1 µM / inhibition at 0.2 µM / inhibition at 0.4 µM: Homo sapiens, read-out: Percent Inhibition; for Percent Inhibition: Table G, ERA-923 0 nM
Description: In these test procedures, rapamycin 42-ester with 3-hydroxy-2-(hydroxymethyl)-2-methylpropionic acid was used as a representative rapamycin, and 2-(4-hydroxy-phenyl)-3-methyl-1-[4-(2-piperdin-1-yl-ethoxy)-benzyl-1 H-indol-5-ol, raloxifene, and 4-hydroxytamoxifen were used as representative antiestrogens.
One day before the experiment, cells were plated in 96-well plates at a cell density of 2,500 cells/well in IMEM medium supplemented with 10% fetal bovine serum. The next day, cells were treated with various concentrations of antiestrogen and rapamycin 42-ester with 3-hydroxy-2-(hydroxymethyl)-2-methylpropionic acid (referred to as CCI-779 in the tables below). Five or six-days later, cell growth was monitored.

Q: Which inhibition at 0.1 µM ([1]; CCI-779 100 nM + CCI-779 100 nM) does the source give for CO[C@H]1C[C@@H]2CC[C@@H](C)[C@@](O)(O2)C(=O)C(=O)N2CCCC[C@H]2C(=O)O[C@H]([C@H](C)C[C@@H]2CC[C@@H](OC(=O)C(C)(CO)CO)[C@H](OC)C2)CC(=O)[C@H](C)/C=C(\C)[C@@H](O)[C@@H](OC)C(=O)[C@H](C)C[C@H](C)/C=C/C=C/C=C/1C [CCI-779, rapamycin 42-ester with 3-hydroxy-2-(hydroxymethyl)-2-methylpropionic acid] here?
A: 55%

Q: And the inhibition at 0.2 µM ([1]; CCI-779 100 nM + CCI-779 200 nM)?
A: 62.5%

Q: And the inhibition at 0.4 µM ([1]; CCI-779 100 nM + CCI-779 400 nM)?
A: 66.8%

Q: And the inhibition at 0.005 µM ([1]; CCI-779 200 nM + CCI-779 5 nM)?
A: 51.4%

Q: And the inhibition at 0.01 µM ([1]; CCI-779 200 nM + CCI-779 10 nM)?
A: 57.1%

Q: And the inhibition at 0.05 µM ([1]; CCI-779 200 nM + CCI-779 50 nM)?
A: 57.2%

Q: And the inhibition at 0.1 µM ([1]; CCI-779 200 nM + CCI-779 100 nM)?
A: 59%

Q: And the inhibition at 0.2 µM ([1]; CCI-779 200 nM + CCI-779 200 nM)?
A: 65.5%

Q: What about the inhibition at 0.4 µM ([1]; CCI-779 200 nM + CCI-779 400 nM) of the same compound?
A: 66.8%

Q: What about the inhibition at 0.005 µM ([1]; CCI-779 400 nM + CCI-779 5 nM) of the same compound?
A: 61.1%

Q: And the inhibition at 0.01 µM ([1]; CCI-779 400 nM + CCI-779 10 nM)?
A: 61.1%

Q: What about the inhibition at 0.05 µM ([1]; CCI-779 400 nM + CCI-779 50 nM) of the same compound?
A: 60%

Q: And the inhibition at 0.1 µM ([1]; CCI-779 400 nM + CCI-779 100 nM)?
A: 62%

Q: And the inhibition at 0.2 µM ([1]; CCI-779 400 nM + CCI-779 200 nM)?
A: 66.3%

Q: What about the inhibition at 0.4 µM ([1]; CCI-779 400 nM + CCI-779 400 nM) of the same compound?
A: 69.7%

Q: And the “concentrations at which synergy was more pronounced” value ([1]; MCF-7, ERA-923 in combination with CCI-779 (Table A))?
A: 300 to 400 nM

Q: What about the “Percent Inhibition” value ([1]; Table A, CCI-779 5 nM, ERA-923 0 nM) of the same compound?
A: −13.25%

Q: What about the “Percent Inhibition” value ([1]; Table A, CCI-779 10 nM, ERA-923 0 nM) of the same compound?
A: −1.54%

Q: What about the “Percent Inhibition” value ([1]; Table A, CCI-779 50 nM, ERA-923 0 nM) of the same compound?
A: 26.68%

Q: What about the “Percent Inhibition” value ([1]; Table A, CCI-779 100 nM, ERA-923 0 nM) of the same compound?
A: 37.93%

Q: What about the “Percent Inhibition” value ([1]; Table A, CCI-779 200 nM, ERA-923 0 nM) of the same compound?
A: 34.99%

Q: What about the “Percent Inhibition” value ([1]; Table A, CCI-779 400 nM, ERA-923 0 nM) of the same compound?
A: 39.43%

Q: And the “Percent Inhibition” value ([1]; Table E, CCI-779 5 nM + CCI-779 0 nM)?
A: 0.59%

Q: And the “Percent Inhibition” value ([1]; Table E, CCI-779 10 nM + CCI-779 0 nM)?
A: 4.91%

Q: And the “Percent Inhibition” value ([1]; Table E, CCI-779 50 nM + CCI-779 0 nM)?
A: 36.55%

Q: What about the “Percent Inhibition” value ([1]; Table E, CCI-779 100 nM + CCI-779 0 nM) of the same compound?
A: 42.35%

Q: What about the “Percent Inhibition” value ([1]; Table E, CCI-779 200 nM + CCI-779 0 nM) of the same compound?
A: 45.87%

Q: And the “Percent Inhibition” value ([1]; Table E, CCI-779 400 nM + CCI-779 0 nM)?
A: 55.78%

Q: What about the inhibition at 0.005 µM ([2]; Table H, CCI-779 5 nM, 4-Hydroxytamoxifen 0 nM) of the same compound?
A: 21.4%

Q: And the inhibition at 0.01 µM ([2]; Table H, CCI-779 10 nM, 4-Hydroxytamoxifen 0 nM)?
A: 24.9%

Q: What about the inhibition at 0.05 µM ([2]; Table H, CCI-779 50 nM, 4-Hydroxytamoxifen 0 nM) of the same compound?
A: 56.3%

Q: What about the inhibition at 0.1 µM ([2]; Table H, CCI-779 100 nM, 4-Hydroxytamoxifen 0 nM) of the same compound?
A: 56.4%

Q: What about the inhibition at 0.2 µM ([2]; Table H, CCI-779 200 nM, 4-Hydroxytamoxifen 0 nM) of the same compound?
A: 60.7%

Q: And the inhibition at 0.4 µM ([2]; Table H, CCI-779 400 nM, 4-Hydroxytamoxifen 0 nM)?
A: 64.9%

Q: And the inhibition at 0.005 µM ([2]; Table I, CCI-779 5 nM, Raloxifene 0 nM)?
A: 8.26%

Q: And the inhibition at 0.01 µM ([2]; Table I, CCI-779 10 nM, Raloxifene 0 nM)?
A: 12.5%

Q: What about the inhibition at 0.05 µM ([2]; Table I, CCI-779 50 nM, Raloxifene 0 nM) of the same compound?
A: 37.7%

Q: What about the inhibition at 0.1 µM ([2]; Table I, CCI-779 100 nM, Raloxifene 0 nM) of the same compound?
A: 42.1%

Q: What about the inhibition at 0.2 µM ([2]; Table I, CCI-779 200 nM, Raloxifene 0 nM) of the same compound?
A: 48.4%

Q: What about the inhibition at 0.4 µM ([2]; Table I, CCI-779 400 nM, Raloxifene 0 nM) of the same compound?
A: 53%

Q: And the “Percent Inhibition” value ([2]; CCI-779 5 nM)?
A: 19.98%

Q: And the “Percent Inhibition” value ([2]; CCI-779 10 nM)?
A: 22.68%

Q: And the “Percent Inhibition” value ([2]; CCI-779 50 nM)?
A: 49.76%

Q: What about the “Percent Inhibition” value ([2]; CCI-779 100 nM) of the same compound?
A: 58.79%

Q: What about the “Percent Inhibition” value ([2]; CCI-779 200 nM) of the same compound?
A: 55.65%

Q: And the “Percent Inhibition” value ([2]; CCI-779 400 nM)?
A: 61.94%
